Test results as given in PMC6440935, “Characterization and phase I study of CLR457, an orally bioavailable pan-class I PI3-kinase inhibitor” (Investigational New Drugs, 2018).
Like-named read-outs stand apart in the source and are kept apart here.

Legend:
p110α = p110α (Homo sapiens, UniProt P42336); assay: In vitro PI3K biochemical assay, p110α
p110β = p110β (Homo sapiens, UniProt P42338); assay: In vitro PI3K biochemical assay, p110β
p110γ = p110γ (Homo sapiens, UniProt P48736); assay: In vitro PI3K biochemical assay, p110γ
[1] = molecular target: PIK3CA H1047R (kinase domain mutation) (Homo sapiens, UniProt P42336, H1047R); assay: In vitro profiling, PIK3CA mutant isoform H1047R; format: biochemical; settings: data not shown
Rat1-myr-p110α tumors [2] = assay: Rat1-myr-p110α tumor xenograft in nude mice; format: in vivo
Protocol: (§1) [13] […] [13] […] CLR457 antitumor activity was then evaluated as described previously. […] (Supplemental Methods).
(§2) The significant level was set at p < 0.05.

Rat1-myr-p110δ tumors = assay: Rat1-myr-p110δ tumor xenograft in nude mice; format: in vivo
Protocol: as §1, §2

[3] = system: blood glucose and plasma insulin levels; assay: Blood glucose and plasma insulin in tumor bearing nude rats; format: in vivo
Protocol: as §1

glucose and insulin = assay: First-in-human phase I study: pharmacodynamic markers glucose and insulin; format: in vivo; settings: 100 mg QD; not clinically significant
Protocol: At the dose of 100 mg QD, there was an increase in the pharmacodynamic markers glucose and insulin, consistent with that observed in the preclinical models, however this increase was not clinically significant (CTCAE grade ≤ 2) (Fig. 3) and was within the range of expected changes based on preclinical data (Fig. 2).

Rat1-myr-p110α tumors [4] = system: Rat1-myr-p110α tumors
Protocol: To evaluate antitumor activity in vivo, three xenograft models were utilized: Rat1-myr-p110α, Rat1-myr-p110δ, and HBRX2524. For Rat1-myr-p110α and Rat1-myr-p110δ, Rat1 fibroblasts were transfected with an N-terminal myristoylated form of PI3Kα or PI3Kδ isoform, which led to constitutive activation of the PI3K pathway. […] Tumor xenografts were then grown subcutaneously in nude mice or nude rats by injection of 2 to 3 × 10^6 cells into the right flank (for Rat1-myr-p110α and Rat1-myr-p110δ). For HBRX2524, a patient-derived breast cancer tumor bearing the H1047R PIK3CA activating mutation was established by subcutaneously implanting resected patient tumor samples in nude mice without any in vitro manipulations.
For the preclinical studies, absolute values for primary tumor growth and body weight were used to make the statistical comparisons between groups (one way analysis of variance [ANOVA] test followed by Dunnett’s test for normally distributed data; ANOVA on ranks for not normally distributed data followed by Dunnett’s test for equal group size or Dunn’s for unequal group size). The significant level was set at p < 0.05.
Female nude Rowett rats Hsd: RH-Fox1rnu were obtained from Harlan (Netherlands) and female Hsd: Athymic Nude-nu CPB mice were obtained from Harlan Winkelmann, Germany.

[5] = human, in vivo
Protocol: (§3) The starting dose for CLR457 was 5 mg QD, based on preclinical toxicology studies in accordance with ICH guidelines, and was administered at the same time each day ±2 h in a fasted state. Various doses were planned up to 300 mg QD until MTD determination.
(§4) PK parameters including area under the curve (AUC), maximum serum concentration (Cmax), and time taken to reach Cmax (Tmax) were calculated using non-compartmental methods in Phoenix WinNonlin. [20]
(§5) [21] […] The Pharmacokinetic analysis set included all patients who had at least one blood sample providing evaluable PK data.

[6] = First-in-human phase I study: plasma pharmacokinetics; settings: for Racc, geometric mean (CV%) / V/F, geometric mean (CV%): cycle 1 day 15
Protocol: as §3, §4, §5

Sequence of p110α (P42336 21-1068 limits assumed): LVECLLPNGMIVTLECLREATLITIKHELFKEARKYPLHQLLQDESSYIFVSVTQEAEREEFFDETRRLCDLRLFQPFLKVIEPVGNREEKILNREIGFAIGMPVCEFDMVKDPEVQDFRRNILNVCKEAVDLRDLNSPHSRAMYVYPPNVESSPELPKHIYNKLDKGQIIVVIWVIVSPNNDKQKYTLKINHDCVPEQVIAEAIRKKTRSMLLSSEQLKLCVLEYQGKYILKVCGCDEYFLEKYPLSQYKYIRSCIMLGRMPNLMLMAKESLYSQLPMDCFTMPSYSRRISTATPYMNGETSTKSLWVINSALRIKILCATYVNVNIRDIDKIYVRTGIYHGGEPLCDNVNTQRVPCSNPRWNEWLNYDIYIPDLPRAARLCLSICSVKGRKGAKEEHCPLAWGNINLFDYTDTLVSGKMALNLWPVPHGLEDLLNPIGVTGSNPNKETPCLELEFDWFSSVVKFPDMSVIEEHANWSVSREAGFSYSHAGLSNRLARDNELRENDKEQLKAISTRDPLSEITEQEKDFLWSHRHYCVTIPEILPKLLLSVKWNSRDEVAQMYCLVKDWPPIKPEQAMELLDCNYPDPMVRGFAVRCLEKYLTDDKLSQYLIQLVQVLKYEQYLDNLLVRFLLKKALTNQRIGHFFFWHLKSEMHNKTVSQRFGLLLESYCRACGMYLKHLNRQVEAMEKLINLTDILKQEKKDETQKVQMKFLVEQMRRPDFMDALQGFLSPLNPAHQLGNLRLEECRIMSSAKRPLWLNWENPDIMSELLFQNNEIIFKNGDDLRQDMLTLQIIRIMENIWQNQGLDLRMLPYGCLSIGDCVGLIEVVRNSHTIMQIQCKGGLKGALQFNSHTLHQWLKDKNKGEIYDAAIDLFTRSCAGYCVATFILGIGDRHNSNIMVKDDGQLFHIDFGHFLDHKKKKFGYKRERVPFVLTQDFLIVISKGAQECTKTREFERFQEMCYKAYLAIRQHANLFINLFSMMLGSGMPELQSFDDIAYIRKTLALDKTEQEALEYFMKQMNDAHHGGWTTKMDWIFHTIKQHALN
Sequence of PIK3CA H1047R (kinase domain mutation) (P42336 21-1068 H1047R limits assumed): as the sequence (P42336 21-1068 limits assumed) above, with H1027R counted along it
Sequence of PIK3CA H1047R (kinase domain mutation) (P27986 461-568 partner limits assumed): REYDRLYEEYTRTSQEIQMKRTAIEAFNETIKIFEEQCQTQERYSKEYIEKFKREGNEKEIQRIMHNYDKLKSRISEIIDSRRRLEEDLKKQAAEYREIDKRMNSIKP
Sequence of p110γ (P48736 whole entry, the tested form may be a part, canonical isoform): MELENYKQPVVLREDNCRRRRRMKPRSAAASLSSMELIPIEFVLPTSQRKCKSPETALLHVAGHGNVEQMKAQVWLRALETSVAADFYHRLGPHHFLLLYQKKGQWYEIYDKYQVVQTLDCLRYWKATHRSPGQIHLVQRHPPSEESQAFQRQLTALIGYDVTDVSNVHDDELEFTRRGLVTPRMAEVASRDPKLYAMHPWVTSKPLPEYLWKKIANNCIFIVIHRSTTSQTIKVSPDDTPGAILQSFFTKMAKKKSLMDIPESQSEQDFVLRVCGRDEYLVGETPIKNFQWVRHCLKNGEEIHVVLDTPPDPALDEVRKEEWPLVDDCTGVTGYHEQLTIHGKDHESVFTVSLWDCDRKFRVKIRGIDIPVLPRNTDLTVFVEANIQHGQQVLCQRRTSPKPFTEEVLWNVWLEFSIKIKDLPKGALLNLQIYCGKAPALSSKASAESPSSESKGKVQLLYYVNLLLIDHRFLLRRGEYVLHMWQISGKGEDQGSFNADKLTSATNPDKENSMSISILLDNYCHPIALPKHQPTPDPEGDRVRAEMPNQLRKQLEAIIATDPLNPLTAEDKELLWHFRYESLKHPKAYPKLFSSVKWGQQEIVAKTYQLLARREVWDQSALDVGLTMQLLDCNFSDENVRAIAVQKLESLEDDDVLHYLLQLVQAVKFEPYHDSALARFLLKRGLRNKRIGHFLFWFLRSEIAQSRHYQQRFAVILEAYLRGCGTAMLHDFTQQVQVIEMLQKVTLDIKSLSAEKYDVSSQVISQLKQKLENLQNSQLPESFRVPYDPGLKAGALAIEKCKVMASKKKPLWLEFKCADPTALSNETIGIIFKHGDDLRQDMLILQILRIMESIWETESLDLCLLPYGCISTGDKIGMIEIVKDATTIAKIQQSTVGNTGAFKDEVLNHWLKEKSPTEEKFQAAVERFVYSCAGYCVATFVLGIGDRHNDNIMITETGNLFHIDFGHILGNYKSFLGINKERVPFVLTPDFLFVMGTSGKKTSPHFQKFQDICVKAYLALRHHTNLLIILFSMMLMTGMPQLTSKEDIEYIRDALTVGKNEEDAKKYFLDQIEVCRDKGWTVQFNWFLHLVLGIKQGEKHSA
Sequence of p110β (P42338 2-1070 limits assumed): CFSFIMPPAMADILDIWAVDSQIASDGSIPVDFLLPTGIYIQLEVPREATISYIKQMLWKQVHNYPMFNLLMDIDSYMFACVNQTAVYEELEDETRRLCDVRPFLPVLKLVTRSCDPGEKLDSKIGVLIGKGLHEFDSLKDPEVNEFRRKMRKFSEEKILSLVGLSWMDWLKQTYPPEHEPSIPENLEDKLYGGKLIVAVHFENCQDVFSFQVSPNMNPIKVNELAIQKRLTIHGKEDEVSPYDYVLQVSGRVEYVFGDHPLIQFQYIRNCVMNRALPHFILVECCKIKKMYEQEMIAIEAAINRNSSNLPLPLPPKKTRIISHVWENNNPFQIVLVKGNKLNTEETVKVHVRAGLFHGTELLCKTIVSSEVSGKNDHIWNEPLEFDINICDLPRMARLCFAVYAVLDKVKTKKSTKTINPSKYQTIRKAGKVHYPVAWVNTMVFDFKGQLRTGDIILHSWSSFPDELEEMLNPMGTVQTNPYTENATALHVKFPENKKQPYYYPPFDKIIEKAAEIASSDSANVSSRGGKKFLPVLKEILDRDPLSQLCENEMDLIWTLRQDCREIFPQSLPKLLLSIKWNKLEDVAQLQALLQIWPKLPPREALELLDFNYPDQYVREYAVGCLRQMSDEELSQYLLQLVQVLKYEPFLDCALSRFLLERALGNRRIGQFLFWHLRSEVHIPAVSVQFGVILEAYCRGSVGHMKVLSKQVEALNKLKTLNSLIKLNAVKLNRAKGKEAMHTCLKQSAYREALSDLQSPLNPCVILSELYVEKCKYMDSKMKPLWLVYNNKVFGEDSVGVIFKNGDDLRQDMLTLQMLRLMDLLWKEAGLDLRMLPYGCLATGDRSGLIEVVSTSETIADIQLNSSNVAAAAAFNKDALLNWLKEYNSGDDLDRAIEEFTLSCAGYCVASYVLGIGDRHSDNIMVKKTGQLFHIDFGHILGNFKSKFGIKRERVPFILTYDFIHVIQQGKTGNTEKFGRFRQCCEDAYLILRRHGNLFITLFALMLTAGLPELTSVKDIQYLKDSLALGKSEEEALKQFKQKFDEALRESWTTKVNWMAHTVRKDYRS
Sequence of p110β (P27986 461-568 partner limits assumed): as the sequence (P27986 461-568 partner limits assumed) above

## C[C@H]1OC(=O)N(c2cc(-c3cnc(N)nc3C(F)(F)F)nc(N3CCOCC3)n2)[C@H]1CO [CLR457]
p110α
  IC50: 89 ± 29 nM
p110β
  IC50: 56 ± 35 nM
p110γ
  IC50: 230 ± 31 nM
[1]
  Inhibition of PIK3CA mutant isoform H1047R: inhibited
Rat1-myr-p110α tumors [2]
  Dose at which tumor regression occurred: 20 mg/kg BID
Rat1-myr-p110δ tumors
  Dose at which tumor regression occurred: 20 mg/kg BID
[3]
  Plasma insulin levels: increased proportionally to CLR457 concentration
[3]; at the dose necessary for tumor regression
  Blood glucose levels: moderately perturbed
Glucose and insulin
  CTCAE grade of increase in glucose and insulin: ≤ 2
Rat1-myr-p110α tumors [4]; 3, 10, 30, 60 mg/kg QD and 30 mg/kg BID oral
  Antitumor activity: dose proportional antitumor activity
Rat1-myr-p110α tumors [4]; oral
  Dose at which tumor regression was observed: ≥ 30 mg/kg QD
[5]
  Geometric mean CL/F: 2610 to 4742 mL/h
  Median Tmax: 1 to 3.5 h
[5]; 5 mg
  AUC(0-24h), geometric mean (CV%): 1182 (40.8) hr*ng/mL
  AUCtau, geometric mean (CV%): 1665 (81.7) hr*ng/mL
  CL/F, geometric mean (CV%): 3003 (81.7) mL/h
  Cmax, geometric mean (CV%): 100 (0.40) ng/mL
  T1/2, acc, median (range): 13.9 (7.58–20.20) hr
  Tmax, median (range): 2.50 (1.00–4.00) hr
[5]; 10 mg
  AUC(0-24h), geometric mean (CV%): 2241 (7.5) hr*ng/mL
  AUCtau, geometric mean (CV%): 2846 (25.5) hr*ng/mL
  CL/F, geometric mean (CV%): 3514 (25.5) mL/h
  Cmax, geometric mean (CV%): 230 (24.5) ng/mL
  T1/2, acc, median (range): 7.92 (6.53–18.40) hr
  Tmax, median (range): 1.00 (0.92–2.00) hr
[5]; 20 mg
  AUC(0-24h), geometric mean (CV%): 6718 (41.6) hr*ng/mL
  AUCtau, geometric mean (CV%): 7662 (45.3) hr*ng/mL
  CL/F, geometric mean (CV%): 2610 (45.3) mL/h
  Cmax, geometric mean (CV%): 475 (24.2) ng/mL
  T1/2, acc, median (range): 11.8 (5.71–15.34) hr
  Tmax, median (range): 2.51 (2.05–3.95) hr
[5]; 40 mg
  AUC(0-24h), geometric mean (CV%): 9567 (34.9) hr*ng/mL
  AUCtau, geometric mean (CV%): 11,727 (39.0) hr*ng/mL
  CL/F, geometric mean (CV%): 3411 (39.0) mL/h
  Cmax, geometric mean (CV%): 687 (47.2) ng/mL
  T1/2, acc, median (range): 11.0 (4.13–27.90) hr
  Tmax, median (range): 2.07 (0.98–6.00) hr
[5]; 70 mg
  AUC(0-24h), geometric mean (CV%): 10,537 (47.6) hr*ng/mL
  AUCtau, geometric mean (CV%): 14,762 (37.1) hr*ng/mL
  CL/F, geometric mean (CV%): 4742 (37.1) mL/h
  Cmax, geometric mean (CV%): 732 (44.8) ng/mL
  T1/2, acc, median (range): 16.8 (11.9–23.70) hr
  Tmax, median (range): 3.50 (0.72–24.1) hr
[5]; 100 mg
  AUC(0-24h), geometric mean (CV%): 18,390 (25.8) hr*ng/mL
  AUCtau, geometric mean (CV%): 23,754 (40.4) hr*ng/mL
  CL/F, geometric mean (CV%): 4210 (40.4) mL/h
  Cmax, geometric mean (CV%): 1449 (28.7) ng/mL
  Exposure at steady state (AUC0-tau on Day 15): 23,754 ng*h/mL
  T1/2, acc, median (range): 12.1 (5.04–27.0) hr
  Tmax, median (range): 2.93 (0.50–7.53) hr
[6]; 5 mg, n 2
  Racc, geometric mean (CV%): 1.4 (33.4)
  V/F, geometric mean (CV%): 43,139 (6.6) mL
[6]; 10 mg, n 3
  Racc, geometric mean (CV%): 1.3 (24.3)
  V/F, geometric mean (CV%): 66,520 (11.5) mL
[6]; 20 mg, n 4
  Racc, geometric mean (CV%): 1.1 (28.4)
  V/F, geometric mean (CV%): 55,193 (32.1) mL
[6]; 40 mg, n 5
  Racc, geometric mean (CV%): 1.3 (38.4)
  V/F, geometric mean (CV%): 115,503 (109.2) mL
[6]; 70 mg, n 4
  V/F, geometric mean (CV%): 72,822 (49.9) mL
[6]; 70 mg, n 5
  Racc, geometric mean (CV%): 1.4 (29.5)
[6]; 100 mg, n 4
  Racc, geometric mean (CV%): 1.3 (37.0)
  V/F, geometric mean (CV%): 67,311 (38.2) mL
[6]; repeated daily dosing
  Steady state: reached by C1D15
